Source: US6743923B2, “Antirheumatic agent” (Shionogi & Co., Ltd., priority 1997, dated 2004)
Marks after values point to notes of the source that are not given here.

What was measured:
[1] = system: IL-6 production from synovial membrane cells of RA patients; test: Inhibitory activity against IL-6 production, synovial membrane cells from RA patient; format: cell-based, human; conditions: synovial membrane cells from RA patient
[2] = system: NO production from activated macrophage; test: Inhibitory activity against NO production from mouse activated macrophage; format: cell-based; conditions: LPS
Experimental: To BALB/c male mice was intraperitoneally administered 2 mL of a thioglycolate solution, and induced activated MΦ were collected after four days and used as NO producing cells. The cells were adjusted to 2×10^6 cells/mL and plated onto a 96-well microtiter plate at 2×10^5 cells/100 μL/well. 10 μL of 1 μg/mL of Compound Ia and LPS (lipopolysaccharide) were added thereto and incubated at 37° C. under 5% CO2 for 24 hours. 75 μL of the supernatant obtained after incubation and 75 μL of Griess reagent were incubated, and […] in the form of sodium nitrite was measured to determine the amount of NO in the supernatant.

IC50 [1]: 10 µM
IC50 ([2]; mouse activated macrophage, 24 hours): 3 µM
SMILES: CCN1CC/C(=C\c2cc(C(C)(C)C)c(O)c(C(C)(C)C)c2)S1(=O)=O [Compound Ia, (E)-2-Ethyl-5-(3,5-di-tert-butyl-4-hydroxy)benzylidene-1,2-isothiazolidine-1,1-dioxide]
NO^2- Production ([2]; 0.8 μM compound, 24 hours): 27.3 ± 0.94 μM/2 × 10^5 cells
NO^2- Production ([2]; 3.1 μM compound, 24 hours): 12.3 ± 2.50 μM/2 × 10^5 cells
NO^2- Production ([2]; 12.5 μM compound, 24 hours): <1.0*** μM/2 × 10^5 cells
NO^2- Production ([2]; 50 μM compound, 24 hours): <1.0*** μM/2 × 10^5 cells
NO^2- Production ([2]; 100 μM compound, 24 hours): <1.0*** μM/2 × 10^5 cells
concentration at which NO production was inhibited in a dose-dependent manner ([2]; mouse activated macrophage): 0.8 to 12.5 µM
